Measurements from paper PMC9268448, “Synthesis of 4,5-Dihydro-1H-[1,2]dithiolo[3,4-c]quinoline-1-thione Derivatives and Their Application as Protein Kinase Inhibitors” (Molecules, 2022).

How the values were obtained:
NPM1-ALK = molecular target: T1, NPM1-ALK (Homo sapiens, UniProt Q9UM73); assay: Kinase inhibition ELISA, NPM1-ALK; assay type: biochemical; settings: 10 μM test compound, 150 μM ATP
T1 construct: NPM1 (nucleophosmin, P06748) fusion partner
Description: (§1) Study of inhibitory activity. […] The enzymatic reaction was stopped with a buffer containing 20 mM HEPES (Sigma, H4034), pH 7.5, and 150 mM EDTA (Sigma, E5513). […] Incubation was carried out for 1 h at room temperature. […] After completion of each incubation step (60 min at room temperature (~20 °C) and continuous stirring), the plates were washed three times from unbound antibody molecules with a PBS solution with Tween-20 and 100 μL of substrate (3.3′,5.5′-tetramethylbenzidine (TMB) dihydrochloride, Sigma, T8768) prepared according to the manufacturer’s instructions. Before measuring the optical density, the reaction was stopped using 0.5 M Н2SO4. The optical density of the solution was determined at λ = 450 nm using a tablet spectrophotometer (TECAN Safire). The data obtained were processed and imported into the HTSCalc program.
(§2) The data were analyzed using GraphPad Prism software (v. 3.1).

ALK = ALK (Homo sapiens, UniProt Q9UM73); assay: Kinase inhibition ELISA, ALK; assay type: biochemical; settings: 10 μM test compound, 150 μM ATP
Description: (§3) Study of inhibitory activity. The kinase activity was determined by enzyme-linked immunosorbent assay (ELISA) in polypropylene plates (Costar, 3363) in reaction buffer (20 mM HEPES, pH 7.5, 15 mM MgCl2, 2 mM DTT, 0.2 mM Na3VO4, 0.005% Triton X-100) for 60 min at 30 °C with vigorous stirring. The final concentration of the reaction components: 0.05 μg mL^–1 of the corresponding kinase, 5 nM Histon H3 biotinylated substrate (1–21) (Anaspec, 61702), 150 μM ATP (Sigma, A6419), 10 μM test compound, 5% DMSO. The enzymatic reaction was stopped with a buffer containing 20 mM HEPES (Sigma, H4034), pH 7.5, and 150 mM EDTA (Sigma, E5513). Further, to detect the phosphorylated substrate, the reaction mixture was transferred to pre-prepared plates (Nunc, 468667) coated with neutravidin (1 ng per well; Pierce, 31000) and treated with bovine serum albumin (BSA) to block non-specific binding sites. Incubation was carried out for 1 h at room temperature. After washing the plates three times with phosphate buffer saline (PBS, pH 7.4) with Tween-20, they were incubated sequentially with anti-phospho-Histon H3 antibodies (0.3 ng μL^–1; Millipore, 04-746) and with specific antibodies conjugated with an enzyme-label (peroxidase) Anti-rabbit IgG, HRP-linked Antibody (titer 1/5000; Cell Signaling, 7074). After completion of each incubation step (60 min at room temperature (~20 °C) and continuous stirring), the plates were washed three times from unbound antibody molecules with a PBS solution with Tween-20 and 100 μL of substrate (3.3′,5.5′-tetramethylbenzidine (TMB) dihydrochloride, Sigma, T8768) prepared according to the manufacturer’s instructions. Before measuring the optical density, the reaction was stopped using 0.5 M Н2SO4. The optical density of the solution was determined at λ = 450 nm using a tablet spectrophotometer (TECAN Safire). The data obtained were processed and imported into the HTSCalc program.

EGFR[L858R][T790] = EGFR[L858R][T790] (Homo sapiens, UniProt P00533, L858R/T790M); assay: Kinase inhibition ELISA, EGFR[L858R][T790]; assay type: biochemical; settings: 10 μM test compound, 150 μM ATP
Description: as §3

cRAF[Y340D][Y341D] = cRAF[Y340D][Y341D] (Homo sapiens, UniProt P04049, Y340D/Y341D); assay: Kinase inhibition ELISA, cRAF[Y340D][Y341D]; assay type: biochemical; settings: 10 μM test compound, 150 μM ATP
Description: as §1, §2

JAK2 = JAK2 (Homo sapiens, UniProt O60674); assay: Kinase inhibition ELISA, JAK2; assay type: biochemical; settings: 10 μM test compound, 150 μM ATP
Description: as §3

JAK3 = molecular target: T2, JAK3 (Homo sapiens, UniProt P52333); assay: Kinase inhibition ELISA, JAK3; assay type: biochemical; settings: 10 μM test compound, 150 μM ATP
T2 sequence (P52333 1-1124): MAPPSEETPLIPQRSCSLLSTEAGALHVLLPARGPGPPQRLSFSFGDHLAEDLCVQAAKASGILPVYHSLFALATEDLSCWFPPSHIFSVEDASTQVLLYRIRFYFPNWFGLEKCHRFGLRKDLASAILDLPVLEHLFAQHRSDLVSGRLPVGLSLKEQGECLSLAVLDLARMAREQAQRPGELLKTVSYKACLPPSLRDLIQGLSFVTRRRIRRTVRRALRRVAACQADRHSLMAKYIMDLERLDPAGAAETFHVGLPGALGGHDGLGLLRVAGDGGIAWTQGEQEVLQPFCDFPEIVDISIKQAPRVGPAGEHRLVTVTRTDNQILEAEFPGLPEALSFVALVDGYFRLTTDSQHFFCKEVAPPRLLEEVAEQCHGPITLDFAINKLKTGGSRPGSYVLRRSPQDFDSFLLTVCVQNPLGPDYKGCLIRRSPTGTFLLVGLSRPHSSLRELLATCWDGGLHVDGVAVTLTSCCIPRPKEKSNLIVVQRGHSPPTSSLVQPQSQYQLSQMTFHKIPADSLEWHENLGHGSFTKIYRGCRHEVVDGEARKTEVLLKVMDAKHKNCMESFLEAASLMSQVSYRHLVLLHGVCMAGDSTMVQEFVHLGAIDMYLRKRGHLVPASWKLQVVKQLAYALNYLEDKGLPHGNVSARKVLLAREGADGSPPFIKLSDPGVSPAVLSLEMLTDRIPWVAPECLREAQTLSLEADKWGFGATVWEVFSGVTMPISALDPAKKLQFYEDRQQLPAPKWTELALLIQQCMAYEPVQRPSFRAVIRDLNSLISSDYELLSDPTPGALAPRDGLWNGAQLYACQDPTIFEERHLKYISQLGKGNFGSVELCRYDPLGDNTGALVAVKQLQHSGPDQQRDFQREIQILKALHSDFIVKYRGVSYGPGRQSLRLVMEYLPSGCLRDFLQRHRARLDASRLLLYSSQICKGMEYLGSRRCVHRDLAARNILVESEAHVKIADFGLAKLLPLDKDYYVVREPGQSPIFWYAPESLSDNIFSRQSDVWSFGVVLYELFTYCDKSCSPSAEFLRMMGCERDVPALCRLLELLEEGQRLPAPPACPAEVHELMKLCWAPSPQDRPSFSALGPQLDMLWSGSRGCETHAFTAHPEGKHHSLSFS
Description: as §3
For compounds 2a–c,q, the IC50 value (μmol L^–1) was calculated from ten concentration points (in triplicate dilution) obtained twice. The data were analyzed using GraphPad Prism software (v. 3.1).

[1] = Solubility in DMSO (noted during NMR); assay type: physicochemical; settings: in words; NMR sample in DMSO
Description: The signal for the carbon atom of the imino group at 166.6 ppm was detected in the spectrum of the arylimino derivative 2q. In the mass spectra of compounds 2h, 2i–n, and 2q, peaks of protonated molecular ions, consistent with the structure of these compounds, were observed.

T1 sequence (Q9UM73 whole entry, looked up, the tested form may be a part): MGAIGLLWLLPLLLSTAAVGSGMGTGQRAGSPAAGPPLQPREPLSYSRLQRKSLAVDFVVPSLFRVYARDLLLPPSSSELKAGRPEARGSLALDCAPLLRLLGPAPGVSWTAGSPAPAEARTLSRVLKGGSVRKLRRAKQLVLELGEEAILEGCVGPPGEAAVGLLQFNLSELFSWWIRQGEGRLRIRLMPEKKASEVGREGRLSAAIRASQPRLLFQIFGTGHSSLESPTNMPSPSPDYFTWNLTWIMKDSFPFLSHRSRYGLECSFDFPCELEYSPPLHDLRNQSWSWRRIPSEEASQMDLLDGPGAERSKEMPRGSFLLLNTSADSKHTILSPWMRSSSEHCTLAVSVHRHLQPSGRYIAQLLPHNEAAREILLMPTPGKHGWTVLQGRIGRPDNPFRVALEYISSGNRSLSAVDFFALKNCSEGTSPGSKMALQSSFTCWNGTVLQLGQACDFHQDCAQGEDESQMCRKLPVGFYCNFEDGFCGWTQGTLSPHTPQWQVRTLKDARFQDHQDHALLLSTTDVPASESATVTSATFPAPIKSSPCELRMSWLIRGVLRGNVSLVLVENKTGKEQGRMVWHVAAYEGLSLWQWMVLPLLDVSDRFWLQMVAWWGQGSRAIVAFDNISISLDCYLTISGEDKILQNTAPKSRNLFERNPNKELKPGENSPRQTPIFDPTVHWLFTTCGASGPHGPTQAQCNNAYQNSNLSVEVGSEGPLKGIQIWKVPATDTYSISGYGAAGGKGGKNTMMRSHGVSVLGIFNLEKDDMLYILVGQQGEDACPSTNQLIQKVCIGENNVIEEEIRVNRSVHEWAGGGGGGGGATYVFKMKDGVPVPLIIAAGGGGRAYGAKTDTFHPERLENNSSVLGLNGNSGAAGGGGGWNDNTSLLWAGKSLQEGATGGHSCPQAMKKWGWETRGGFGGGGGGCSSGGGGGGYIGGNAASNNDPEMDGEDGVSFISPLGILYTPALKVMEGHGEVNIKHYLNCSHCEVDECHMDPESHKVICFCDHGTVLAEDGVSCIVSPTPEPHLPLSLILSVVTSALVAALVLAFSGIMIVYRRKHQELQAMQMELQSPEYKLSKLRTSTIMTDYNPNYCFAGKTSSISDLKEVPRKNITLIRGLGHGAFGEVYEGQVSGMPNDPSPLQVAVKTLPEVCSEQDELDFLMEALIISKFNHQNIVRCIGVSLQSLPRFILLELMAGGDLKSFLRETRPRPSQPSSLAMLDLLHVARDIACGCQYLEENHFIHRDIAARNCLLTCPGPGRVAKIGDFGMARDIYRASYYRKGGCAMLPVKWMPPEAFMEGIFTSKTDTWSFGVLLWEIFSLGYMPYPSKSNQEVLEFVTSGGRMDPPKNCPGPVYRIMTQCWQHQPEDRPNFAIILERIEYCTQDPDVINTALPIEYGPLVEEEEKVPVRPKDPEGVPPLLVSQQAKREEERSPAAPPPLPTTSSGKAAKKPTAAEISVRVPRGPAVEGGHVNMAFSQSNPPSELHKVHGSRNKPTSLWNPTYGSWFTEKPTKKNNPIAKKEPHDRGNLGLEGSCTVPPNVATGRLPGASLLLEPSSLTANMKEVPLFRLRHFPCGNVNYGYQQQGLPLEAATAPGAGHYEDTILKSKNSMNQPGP
ALK, sequence (Q9UM73 19-1620): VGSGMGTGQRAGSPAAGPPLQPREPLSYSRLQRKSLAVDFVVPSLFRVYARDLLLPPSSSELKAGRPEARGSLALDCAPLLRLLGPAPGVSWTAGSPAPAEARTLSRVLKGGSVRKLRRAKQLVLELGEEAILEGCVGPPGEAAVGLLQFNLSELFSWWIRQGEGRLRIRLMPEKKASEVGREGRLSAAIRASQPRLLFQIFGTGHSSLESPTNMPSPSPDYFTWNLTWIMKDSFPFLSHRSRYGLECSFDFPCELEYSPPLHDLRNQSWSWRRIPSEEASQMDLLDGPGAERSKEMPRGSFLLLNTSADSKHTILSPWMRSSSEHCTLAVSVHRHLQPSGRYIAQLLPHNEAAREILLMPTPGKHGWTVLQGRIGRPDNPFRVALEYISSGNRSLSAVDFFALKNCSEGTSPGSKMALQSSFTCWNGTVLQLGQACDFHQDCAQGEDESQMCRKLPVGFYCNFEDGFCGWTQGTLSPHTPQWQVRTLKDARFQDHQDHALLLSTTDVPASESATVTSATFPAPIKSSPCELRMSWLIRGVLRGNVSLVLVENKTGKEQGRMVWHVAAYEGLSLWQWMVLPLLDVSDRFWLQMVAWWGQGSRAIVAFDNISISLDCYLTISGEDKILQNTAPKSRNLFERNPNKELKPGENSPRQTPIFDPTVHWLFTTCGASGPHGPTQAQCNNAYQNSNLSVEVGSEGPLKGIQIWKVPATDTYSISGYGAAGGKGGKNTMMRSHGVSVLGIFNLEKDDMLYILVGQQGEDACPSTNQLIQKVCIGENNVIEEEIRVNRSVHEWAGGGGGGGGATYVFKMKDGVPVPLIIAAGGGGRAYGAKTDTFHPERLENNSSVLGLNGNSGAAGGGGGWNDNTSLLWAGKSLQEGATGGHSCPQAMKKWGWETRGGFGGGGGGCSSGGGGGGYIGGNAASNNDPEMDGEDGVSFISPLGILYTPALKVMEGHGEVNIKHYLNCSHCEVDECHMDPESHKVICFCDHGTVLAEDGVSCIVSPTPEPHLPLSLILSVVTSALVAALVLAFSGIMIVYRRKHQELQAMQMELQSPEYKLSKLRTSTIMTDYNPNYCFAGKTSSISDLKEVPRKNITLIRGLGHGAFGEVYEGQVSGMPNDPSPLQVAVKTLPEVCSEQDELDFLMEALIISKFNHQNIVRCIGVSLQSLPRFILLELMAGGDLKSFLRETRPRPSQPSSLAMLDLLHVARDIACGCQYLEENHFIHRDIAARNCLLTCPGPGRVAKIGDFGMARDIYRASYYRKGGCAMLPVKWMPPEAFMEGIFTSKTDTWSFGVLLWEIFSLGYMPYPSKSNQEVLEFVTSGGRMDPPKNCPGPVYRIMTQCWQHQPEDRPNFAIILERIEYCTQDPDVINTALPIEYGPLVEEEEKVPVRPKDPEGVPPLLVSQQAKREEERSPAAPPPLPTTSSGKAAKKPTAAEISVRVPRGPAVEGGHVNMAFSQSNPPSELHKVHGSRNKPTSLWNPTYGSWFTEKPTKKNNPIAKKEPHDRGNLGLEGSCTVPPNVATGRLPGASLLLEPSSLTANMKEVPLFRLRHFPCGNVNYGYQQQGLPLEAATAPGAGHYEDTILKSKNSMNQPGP
JAK2, sequence (O60674 whole entry): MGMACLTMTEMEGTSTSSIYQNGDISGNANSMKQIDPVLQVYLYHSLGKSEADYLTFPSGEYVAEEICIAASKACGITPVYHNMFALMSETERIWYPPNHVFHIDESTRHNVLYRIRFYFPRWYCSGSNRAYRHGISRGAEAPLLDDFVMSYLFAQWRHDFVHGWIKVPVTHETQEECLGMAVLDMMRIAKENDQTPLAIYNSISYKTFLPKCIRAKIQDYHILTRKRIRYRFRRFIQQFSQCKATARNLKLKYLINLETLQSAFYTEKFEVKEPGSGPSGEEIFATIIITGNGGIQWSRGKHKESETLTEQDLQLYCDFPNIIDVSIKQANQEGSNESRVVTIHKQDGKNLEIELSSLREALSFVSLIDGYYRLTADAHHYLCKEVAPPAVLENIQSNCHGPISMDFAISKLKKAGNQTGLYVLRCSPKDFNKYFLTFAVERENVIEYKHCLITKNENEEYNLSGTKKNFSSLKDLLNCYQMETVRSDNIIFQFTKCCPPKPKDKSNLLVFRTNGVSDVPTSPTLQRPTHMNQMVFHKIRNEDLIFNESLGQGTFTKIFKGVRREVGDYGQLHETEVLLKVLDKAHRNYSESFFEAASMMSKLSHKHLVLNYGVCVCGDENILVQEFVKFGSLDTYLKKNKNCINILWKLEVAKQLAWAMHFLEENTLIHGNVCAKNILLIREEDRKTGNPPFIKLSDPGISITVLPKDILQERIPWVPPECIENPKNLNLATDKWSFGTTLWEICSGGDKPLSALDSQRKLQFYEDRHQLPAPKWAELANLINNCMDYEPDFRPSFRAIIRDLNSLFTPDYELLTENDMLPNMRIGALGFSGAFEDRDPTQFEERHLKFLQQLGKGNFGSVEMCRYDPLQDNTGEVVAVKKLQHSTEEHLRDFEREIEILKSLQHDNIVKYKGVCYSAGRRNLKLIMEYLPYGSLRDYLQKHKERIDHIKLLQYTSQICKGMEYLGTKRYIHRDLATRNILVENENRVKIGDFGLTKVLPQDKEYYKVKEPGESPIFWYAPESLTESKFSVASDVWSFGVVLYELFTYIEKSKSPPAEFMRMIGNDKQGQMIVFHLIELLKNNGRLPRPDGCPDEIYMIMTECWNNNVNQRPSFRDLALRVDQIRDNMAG
cRAF[Y340D][Y341D], sequence (P04049 whole entry Y340D/Y341D): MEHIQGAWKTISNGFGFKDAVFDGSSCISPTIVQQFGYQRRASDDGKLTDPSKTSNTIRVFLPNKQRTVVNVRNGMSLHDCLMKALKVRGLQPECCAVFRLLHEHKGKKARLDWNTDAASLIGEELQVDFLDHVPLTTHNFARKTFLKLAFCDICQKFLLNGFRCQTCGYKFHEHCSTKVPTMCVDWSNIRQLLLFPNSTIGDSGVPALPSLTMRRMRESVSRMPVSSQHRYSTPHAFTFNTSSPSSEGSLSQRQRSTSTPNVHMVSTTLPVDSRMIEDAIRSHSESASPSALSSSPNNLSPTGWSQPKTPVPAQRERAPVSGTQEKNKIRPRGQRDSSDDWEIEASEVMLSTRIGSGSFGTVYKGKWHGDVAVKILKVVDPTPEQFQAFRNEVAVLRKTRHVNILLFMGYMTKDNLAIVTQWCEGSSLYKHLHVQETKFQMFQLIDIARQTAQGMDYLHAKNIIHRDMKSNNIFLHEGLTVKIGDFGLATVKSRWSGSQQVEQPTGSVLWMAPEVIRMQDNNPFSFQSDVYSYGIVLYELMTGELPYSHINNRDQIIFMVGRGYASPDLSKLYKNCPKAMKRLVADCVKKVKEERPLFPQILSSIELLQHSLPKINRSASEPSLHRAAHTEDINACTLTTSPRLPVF

Q: Which inhibition at 10 µM (NPM1-ALK) does the source give for `CC1(C)c2ssc(=S)c2-c2cc3c(c4c2N1C(=O)C4=O)OCCO3` [2n, 8,8-Dimethyl-11-thioxo-2,3,8,11-tetrahydro[1,4]dioxino[2,3-g][1,2]dithiolo[3,4-c]pyrrolo[3,2,1-ij]quinoline-5,6-dione] here?
A: The inhibition at 10 µM was 24%.

Q: And the inhibition at 10 µM (ALK)?
A: Its inhibition at 10 µM is 19%.

Q: And the inhibition at 10 µM (EGFR[L858R][T790])?
A: The inhibition at 10 µM was 5%.

Q: What about the inhibition at 10 µM (cRAF[Y340D][Y341D]) of the same compound?
A: The inhibition at 10 µM was 13%.

Q: And the inhibition at 10 µM (JAK2)?
A: Its inhibition at 10 µM is 47%.

Q: What about the inhibition at 10 µM (JAK3) of the same compound?
A: Its inhibition at 10 µM is 52%.

Q: What about the “solubility in DMSO” value [1] of the same compound?
A: Its value is “low solubility in DMSO”.

Q: What about the melting point of the same compound?
A: The melting point was over 260 °C.
